Where only a bound is given, the exact number is not on record here.

The test system of experiment [1] is HIF-2α HIS TAG-PASB Domain. The experiment is described as follows: HIF-2α Scintillation Proximity Assay (SPA). The format is binding. On the procedure:
The percent inhibition was determined and IC50 values were calculated using the Dotmatics system based on the following equation: % inhibition=[(high control−sample)/(high control−low control)]×100.
Background: SPA uses beads or plates that emit light when radiolabelled molecules are held near them.

For the next experiment, the system named is 786-O-Hif-Luc cells. The experiment is described as follows: Luciferase Assay. The format is cell-based. The settings on record: about 24 hours, read-out: Mean Luciferease EC50. The method, then:
A pool of infected cells were then selected against 2 μg/mL of puromycin (P8833, Sigma) for 10 days followed by limited dilution to select single clones.
Each concentration was tested in triplicate. After about 24 hours, luciferase activity was determined using ONE-Glo Luciferase Assay Reagent (E6110, Promega) following the manufacturer's recommended procedure. EC50 were calculated by using Dotmatics software.

Experiment [2] deals with human VEGFA. The experiment is described as follows: plasma human VEGF level of 786-O xenograft bearing mice. It counts as in vivo. To be noted: 10, 30 and 100 mg/kg three times at 12 hour intervals, 12 h post treatment vs prior to treatment, FIG. 5. (In general: Xenograft models place foreign cells or tissue in a host animal.)
The subject of experiment [3] is renal cell carcinoma 786-O xenograft. The experiment is described as follows: tumor size in 786-O xenograft bearing mice, single agent. It counts as in vivo. The settings on record: 3, 10, 30 and 100 mg/kg BID for 20 days, FIG. 7.
The test system of a further experiment is mouse kidney. The experiment is described as follows: In vivo PK/PD study, kidney mRNA levels by qRT-PCR. On the set-up: species or system SCID/Biege mice. To be noted: FIG. 3. On the procedure:
About 5×10^6 renal cell carcinoma 786-O tumor cells (ATCC® CRL-1932™, VHL and HIF-1α null cell line) in PBS and Matrigel (1:1 in volume) were injected subcutaneously at the right flanks of SCID/Biege mice at 6-7 weeks of age for xenograft development. When the xenografts reached about 450 mm^3 in size, the tumor bearing mice were randomly divided into 4 groups (n=4). Plasma was collected prior to treatment by retro-orbital bleeding. […] All animals were sacrificed at 12 hours post last dose. Tumor, kidney, and plasma were collected from each animal. Total RNA was extracted from the tumors and kidneys. The mRNA levels of HIF-1α, HIF-2α and their respective target genes were determined by qRT-PCR (FIG. 1).
(Quantitative PCR measures a nucleic acid by following its amplification.)

Experiment [4] relates to human VEGFA. The experiment is described as follows: In vivo PK/PD study, plasma human VEGFA by ELISA. To be noted: 786-O tumor-bearing mice; 10, 30 or 100 mg/kg; FIG. 5. Further details: species or system SCID/Biege mice.
The test system of experiment [5] is 786-O renal cell carcinoma xenograft. The experiment is described as follows: In vivo efficacy study, 786-O xenograft. Further details: species or system SCID/Biege mice. The settings on record: for Tumor size Mean ± SEM: after 20 days of dosing.
A further experiment deals with 786-O cells. The experiment is described as follows: VEGF ELISA Assay. It counts as cell-based. The method, then: Each concentration had duplicated wells. About 20 hours later, medium was removed by suction and each well was supplied with 180 μL of growth medium. About 20 μl freshly-made 10× compound stocks were added to each well. […] The EC50 was calculated by GraphPad Prism using the dose-response-inhibition (four parameter) equation. The cell seeded plate was then subjected to CellTiter-Glo luminescence cell viability assay (Promega) by adding 50 μL of Celltiter Glo reagent into each well and shaking the plate for 8 minutes at 550 rpm (Thermomixer R, Eppendorf) then read luminescence signal in plate reader (3 second delay, 0.5 second/well integration time, Synergy 2 multi Detection Microplate reader) immediately.

As to `O=S(=O)(c1ccc(Oc2cc(F)cc(Cl)c2)c(Br)c1)C(F)(F)F` [Compound 116, 2-Bromo-1-(3-chloro-5-fluorophenoxy)-4-((trifluoromethyl)sulfonyl)benzene], the concentration for half-maximal inhibition (IC50) (commonly the concentration that gives 50% inhibition) in experiment [1] was found to be 150 nM. For the same compound, the EC50 – broadly, the concentration giving half of the maximal effect – in the experiment with 786-O-Hif-Luc cells stood at 3500 nM.

With `N#Cc1cncc(Oc2ccc(S(=N)(=O)C(F)(F)F)c3c2CC(F)(F)[C@H]3O)c1` (stereo partly drawn) [Example 315, 5-(((1S)-2,2-difluoro-1-hydroxy-7-(S-(trifluoromethyl)sulfonimidoyl)-2,3-dihydro-1H-inden-4-yl)oxy)nicotinonitrile], it took 23.2 nM to reach half-maximal inhibition in experiment [1] (IC50). Also, the EC50 with 786-O-Hif-Luc cells was found to be 110 nM.

On to `N#Cc1cc(F)cc(Oc2ccc(S(=O)(=O)C(F)F)c3c2CC(F)(F)[C@H]3O)c1` [Compound 15, 3-[(1S)-7-(difluoromethylsulfonyl)-2,2-difluoro-1-hydroxy-indan-4-yl]oxy-5-fluoro-benzonitrile], for which the “plasma level of human VEGFA” value with human VEGFA [2] is “reduced”; with human VEGFA [4], “significant reduction”. Also, the tumor size entry in experiment [3] is “tumor size reduction and regression”. Besides, the “Kidney EPO mRNA level” value in the experiment on mouse kidney is reported as “reduced”. Also, in the experiment with mouse kidney, the “Kidney PGK1 mRNA level” value was “remained unchanged”. The “Tumor size Mean ± SEM” value was 136.29 ± 15.77 mm^3 in experiment [5] (3 mg/kg BID), 45.36 ± 2.22 mm^3 in experiment [5] (10 mg/kg BID), 35.63 ± 2.26 mm^3 in experiment [5] (30 mg/kg BID) and 37.11 ± .6 mm^3 in experiment [5] (100 mg/kg BID). Further, the “Tumor size change vs vehicle” value in experiment [5] (3, 10, 30 and 100 mg/kg BID, 20 days, t-Test) is listed as “statistically significant reduction of tumor size”.

`N#CN=S(=O)(CF)c1ccc(Oc2cc(F)cc(C#N)c2)c2c1[C@H](O)[C@H](F)C2` (single isomer, unassigned) [Example 276]: the IC50 in experiment [1] was 58 nM. Besides, the EC50 in the experiment with 786-O-Hif-Luc cells was determined as 150 nM.

Consider `N#Cc1cc(F)cc(Oc2ccc(S(=N)(=O)C(F)(F)F)c3c2CC(F)(F)[C@H]3O)c1` (single isomer, unassigned) [Example 305], for which, in experiment [1], the 50% inhibitory concentration (IC50) is < 5 nM. The EC50 in the experiment on 786-O cells (Homo sapiens, 786-0, 786-O cells) is 19.5 nM; in the experiment on 786-O-Hif-Luc cells, 13 nM.

Take `C=CCN=S(=O)(c1ccc(Oc2cc(F)cc(C#N)c2)c2c1[C@H](O)C(F)(F)C2)C(F)(F)F` (single isomer, unassigned) [Compound 308]: in experiment [1], 68 nM corresponded to half-maximal inhibition (IC50). Also, in the experiment with 786-O-Hif-Luc cells, the EC50 is 690 nM.

In turn, `N#Cc1cc(F)cc(Oc2ccc(S(=O)(=O)C(F)(F)F)c3c2CC(F)C3N)c1` (stereo not shown) [Compound 265, 3-((1-amino-2-fluoro-7-((trifluoromethyl)sulfonyl)-2,3-dihydro-1H-inden-4-yl)oxy)-5-fluorobenzonitrile] gave an IC50 in experiment [1] of 90 nM. The concentration for a half-maximal effect (EC50) with 786-O-Hif-Luc cells was determined as 900 nM.

`O=S(=O)(c1ccc(Oc2cc(F)cc(Cl)c2)c(Cl)c1)C(F)(F)F` [Compound 128, 2-Chloro-1-(3-chloro-5-fluorophenoxy)-4-((trifluoromethyl)sulfonyl)benzene] displayed an IC50 in experiment [1] of 150 nM. Besides, the EC50 in the experiment with 786-O-Hif-Luc cells turned out to be 3000 nM.

In experiment [1], `N#Cc1cc(F)cc(Oc2ccc(S(=N)(=O)C(F)(F)F)c3c2CCC3O)c1` (stereo not drawn) [Compound 259, 3-Fluoro-5-((1-hydroxy-7-(S-(trifluoromethyl)sulfonimidoyl)-2,3-dihydro-1H-inden-4-yl)oxy)benzonitrile] yielded an IC50 of 1200 nM. Besides, the EC50 in the experiment with 786-O-Hif-Luc cells was 2000 nM.

Turning to `C=CCN=S(=O)(c1ccc(Oc2cc(F)cc(C#N)c2)c2c1[C@H](O)C(F)(F)C2)C(F)(F)F` (single isomer, unassigned) [Compound 307], the IC50 in experiment [1] is 370 nM. In the experiment with 786-O-Hif-Luc cells, the half-maximal effective concentration (EC50) turned out to be 1700 nM.

As to `C[C@H]1C[C@@H](O)c2c(S(=O)(=O)C(F)F)ccc(Oc3cc(F)cc(Cl)c3)c21` (racemic) [Compound 7a], in the experiment with 786-O-Hif-Luc cells, the EC50 worked out at 1000 nM.

Regarding `CS(=O)(=NC#N)c1ccc(Oc2cc(F)cc(C#N)c2)c2c1[C@H](O)C(F)(F)[C@@H]2F` (single isomer, unassigned) [Example 317], in experiment [1], the IC50 is < 5 nM. Also, the results for the EC50 with 786-O cells (786-O cells) and with 786-O-Hif-Luc cells were 14 nM and 12 nM, respectively.

`O=S(=O)(c1ccc(Oc2cc(F)cc(Cl)c2)c(Br)c1CO)C(F)F` [Compound 74, (2-bromo-3-(3-chloro-5-fluorophenoxy)-6-((difluoromethyl)sulfonyl)phenyl)methanol]: the EC50 in the experiment with 786-O-Hif-Luc cells was found to be 490 nM.

`CS(=O)(=NC#N)c1ccc(Oc2cc(F)cc(C#N)c2)c2c1[C@H](O)C(F)(F)C2` (single isomer, unassigned) [Example 245]: in experiment [1], the midpoint of inhibition, the IC50, lay at 32 nM. Moreover, the 50% effective concentration (EC50) with 786-O cells (786-O cells) was 160 nM; with 786-O-Hif-Luc cells, 61 nM.

For the compound `N#CN=S(=O)(CF)c1ccc(Oc2cc(F)cc(C#N)c2)c2c1[C@H](O)C(F)(F)C2` (single isomer, unassigned) [Example 286], the midpoint of inhibition in experiment [1], the IC50, lay at 24 nM. Moreover, the EC50 with 786-O-Hif-Luc cells is 140 nM.

Take `N#Cc1cc(F)cc(Oc2ccc(S(=N)(=O)C(F)(F)F)c3c2CC(F)(F)[C@H]3O)c1` (single isomer, unassigned) [Example 306]: the IC50 in experiment [1] is < 5 nM. The EC50 with 786-O cells (786-O cells) was found to be 19.2 nM; in the experiment with 786-O-Hif-Luc cells, 30 nM.

`N#CN=S(=O)(CF)c1ccc(Oc2cc(F)cc(C#N)c2)c2c1[C@H](O)[C@H](F)C2` (single isomer, unassigned) [Example 277] displayed a 50% inhibitory concentration (IC50) in experiment [1] of 135 nM. The EC50 with 786-O-Hif-Luc cells turned out to be 74 nM.

The compound `O=S(=O)(c1ccc(Oc2cc(F)cc(Cl)c2)c(Cl)c1Cn1ccnc1)C(F)F` [Compound 45, 1-(2-Chloro-3-(3-chloro-5-fluorophenoxy)-6-((difluoromethyl)sulfonyl)benzyl)-1H-imidazole] returned a 50% inhibitory concentration (IC50) in experiment [1] of 6100 nM. This counts as single-digit micromolar.

In turn, `N=S(=O)(c1ccc(Oc2cc(F)cc(Cl)c2)c(Br)c1)C(F)(F)F` (stereo not shown) [Compound 71, 2-bromo-1-(3-chloro-5-fluorophenoxy)-4-((trifluoromethyl)sulfonimidoyl)benzene] yielded a concentration for half-maximal inhibition (IC50) in experiment [1] of 640 nM. This IC50 is about 9.5-fold lower than that of the compound before.

In experiment [1], `CC(=O)c1c(S(=O)(=O)C(F)(F)F)ccc(Oc2cc(F)cc(Cl)c2)c1Br` [Compound 104, 1-(2-Bromo-3-(3-chloro-5-fluorophenoxy)-6-((trifluoromethyl)sulfonyl)phenyl)ethan-1-one] had an IC50 of 270 nM.

For `C[C@@]1(F)Cc2c(Oc3cc(F)cc(C#N)c3)ccc(S(C)(=O)=O)c2[C@@H]1O` [Compound 300], the IC50 in experiment [1] was found to be 2030 nM.

In experiment [1], `CS(=O)(=O)c1ccc(Oc2cc(C#N)cc(C(F)F)c2)c2c1C(O)CC2` (stereo not shown) [Compound 249, 3-(Difluoromethyl)-5-((1-hydroxy-7-(methylsulfonyl)-2,3-dihydro-1H-inden-4-yl)oxy)benzonitrile] registered an IC50 of 880 nM.

In turn, `O=S(=O)(c1ccc(Oc2cc(F)cc(F)c2)c2c1C=CC2)C(F)F` [Compound 21, 4-((Difluoromethyl)sulfonyl)-7-(3,5-difluorophenoxy)-1H-indene] returned an IC50 in experiment [1] of 140 nM. This IC50 lies about 6.3-fold lower than the previous one.

As to `N#Cc1cc(F)cc(Oc2ccc(S(=N)(=O)CF)c3c2CC(F)(F)[C@H]3O)c1` (single isomer, unassigned) [Example 275], the IC50 in experiment [1] came out at 76 nM. Besides, the EC50 with 786-O-Hif-Luc cells is 260 nM.

In experiment [1], `N#Cc1cc(F)cc(Oc2ccc(S(=O)(=O)C(F)(F)F)cc2Br)c1` [Compound 118, 3-(2-Bromo-4-((trifluoromethyl)sulfonyl)phenoxy)-5-fluorobenzonitrile] returned an IC50 of 160 nM.

As to `N#Cc1cncc(Oc2ccc(S(=O)(=O)C(F)(F)F)c3c2CCC3O)c1` (stereo not shown) [Compound 220, 5-((1-Hydroxy-7-((trifluoromethyl)sulfonyl)-2,3-dihydro-1H-inden-4-yl)oxy)nicotinonitrile], half-maximal inhibition in experiment [1] (IC50) required 700 nM.

Regarding `O=S(=O)(c1ccc(Oc2cncc(F)c2)c2c1[C@H](O)C(F)(F)C2)C(F)(F)F` [Example 309, (S)-2,2-difluoro-4-((5-fluoropyridin-3-yl)oxy)-7-((trifluoromethyl)sulfonyl)-2,3-dihydro-1H-inden-1-ol], in experiment [1], the IC50 was < 5 nM.

These data come from US9896418B2, “Aryl ethers and uses thereof” (Peloton Therapeutics, Inc., priority 2013, dated 2018).
